According to PMC12281424, “A Rac-specific competitive inhibitor of guanine nucleotide binding reduces metastasis in triple-negative breast cancer” (Cell Reports Medicine, 2025):

Columns and labels:
RAC1 = molecular target: T1, RAC1 (Mus musculus, UniProt P63001); test: RAC-GTP pull-down assay, EGF-stimulated NIH/3T3 fibroblasts; format: cell-based; details: 10^-5 M, 1 h, EGF 10 ng/mL 5 min
T1 construct: endogenous in cells; host or cells: NIH/3T3 fibroblasts (ATCC CRL-1658), EGF-stimulated
Procedure: Figure 2 Identification of a new RAC1 inhibitor (A) Effect of A41 and NSC23766 on ruffle formation (white arrows) induced by EGF (10 ng/mL) in NIH 3T3 cells in serum-free culture medium (CTL). Inhibitors were added at indicated concentration 1 h prior to EGF stimulation. To assess cytoskeleton organization, cells were incubated with Alexa Fluor 488 phalloidin to visualize F-actin. Results shown are representative of 3 independent experiments. Corresponding concentration-response curves have been established by counting the percentages of cells with ruffles (scale bars: 10 μm). (B) Immunoblot analysis and associated quantification of RAC-GTP level and total RAC expression in NIH 3T3 cells stimulated by EGF (10 ng/mL, 5 min) and pre-incubated or not (−) with NSC23766, A41, or A415 at 10^−5 M for 1 h (∗∗∗p < 0.001 vs. controls without EGF stimulation, ^###p < 0.001 vs. controls with EGF stimulation) (N > 3). (C) Representative surface plasmon resonance (SPR) sensograms of binding of immobilized RAC1 with increasing concentrations of A41 with or without EDTA (20 mM) (N > 3). (D) Representative in vitro nucleotide exchange catalyzed by the DH-PH of TIAM (10 nM) measured by the binding of fluorescent mant-GTP (1 μM) to RAC1 (0.5 μM, preloaded with GDP) in the presence of indicated concentrations of A41 (out of N = 6). Dotted lines correspond to the experimental curves, and continuous lines represent the fit of experimental points. (E) Kobs and Kmax were determined in each condition (N = 6). (F) Predicted binding modes of A4 to the NSC23766-binding site (left) or the GDP-binding pocket of RAC1 (right). In the NSC23766-binding site of RAC1, the compound A4 (carbon atoms in blue) makes 2 hydrogen bonds (green dotted line) with Ser71 (S71) and 10 hydrophobic interactions (pink dotted line) with Ala3 (A3), Lys5 (K5), Val36 (V36), Trp56 (W56), Tyr64 (Y64), and Leu67 (L67) leading to a docking score of −6.03 kcal/mol. The GDP molecule is shown with fine line. The P loop is shown in yellow, the switch 1 in orange, and the switch 2 in green. […]
Pull-down assay using GST-PBD fusion proteins were performed on NIH-3T3 lysates to assess RAC1 activity as previously described.[63] The precipitated active RAC was subjected to SDS-PAGE and detected by immunoblot with anti-RAC1 antibody (BD biosciences) (dilution 1/1000). […]
screening molecules (10^-5 M) on NIH/3T3 cell adhesion (xCELLingence Real-time cellanalysis, Agilent), migration (CYTOO Mobility plates) and proliferation (xCELLingence Real-time cell analysis, Agilent) .The level of RAC activation is determinedby the detection of RAC-GTP (pull-down assay) in NIH/3T3 cell treated with EGF (10 ng/mL) and the differentmolecules and normalize to the level of RAC activity measuredin the presenceof the reference RAC inhibitor EHT1864.

[1] = molecular target: Peptidase, Angiotensin Converting Enzyme (Oryctolagus cuniculus, UniProt P12822); test: Safety screen; format: biochemical, rabbit
Procedure: (§1) Blood cell counts, kinase profiler, safety screen, bacterial cytotoxicity, Ames, micronucleus assays were performed by the company Eurofins (France).

Adrenergic β1 = Adrenergic β1 (Homo sapiens, UniProt P08588); test: Safety screen; format: binding
Procedure: (§2) Blood cell counts, kinase profiler, safety screen, bacterial cytotoxicity, Ames, micronucleus assays were performed by the company Eurofins (France). The kinase profiler was performed by the company Eurofins (Discovery, Panlab and Cerep).

Angiotensin AT1 = Angiotensin AT1 (Homo sapiens, UniProt P30556); test: Safety screen; format: binding
Sequence of Angiotensin AT1 (P30556 whole entry): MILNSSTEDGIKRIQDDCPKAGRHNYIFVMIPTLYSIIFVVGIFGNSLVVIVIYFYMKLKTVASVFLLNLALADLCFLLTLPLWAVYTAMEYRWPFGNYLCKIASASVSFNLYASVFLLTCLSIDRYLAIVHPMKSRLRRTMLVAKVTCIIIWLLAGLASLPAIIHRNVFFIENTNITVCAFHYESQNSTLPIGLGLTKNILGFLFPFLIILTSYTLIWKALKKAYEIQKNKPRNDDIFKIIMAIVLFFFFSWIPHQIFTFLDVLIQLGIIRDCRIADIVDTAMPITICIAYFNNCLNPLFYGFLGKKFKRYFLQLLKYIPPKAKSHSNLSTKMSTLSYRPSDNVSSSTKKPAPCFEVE
Procedure: as §2

Chemokine CCR1 = Chemokine CCR1 (Homo sapiens, UniProt P32246); test: Safety screen; format: binding
Sequence of Chemokine CCR1 (P32246 whole entry): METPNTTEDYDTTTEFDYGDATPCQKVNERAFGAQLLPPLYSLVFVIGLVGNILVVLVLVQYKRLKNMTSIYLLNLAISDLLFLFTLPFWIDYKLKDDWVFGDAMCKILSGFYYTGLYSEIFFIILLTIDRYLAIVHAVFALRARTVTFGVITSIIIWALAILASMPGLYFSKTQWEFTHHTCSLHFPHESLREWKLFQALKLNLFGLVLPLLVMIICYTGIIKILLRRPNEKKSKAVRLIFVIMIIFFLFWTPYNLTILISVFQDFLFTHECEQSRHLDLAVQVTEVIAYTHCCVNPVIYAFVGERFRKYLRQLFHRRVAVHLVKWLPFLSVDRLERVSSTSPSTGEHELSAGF
Procedure: as §1

ALK2(h) = ALK2(h) (Homo sapiens, UniProt Q04771); test: Kinase Profiler; format: biochemical
Procedure: (§3) The kinase profiler was performed by the company Eurofins (Discovery, Panlab and Cerep).

CaMKI(h) = CaMKI(h) (Homo sapiens, UniProt Q14012); test: Kinase Profiler; format: biochemical
Procedure: as §2

CaMKIIβ(h) = CaMKIIβ(h) (Homo sapiens, UniProt Q13554); test: Kinase Profiler; format: biochemical
Procedure: as §3

CDKL3(h) = CDKL3(h) (Homo sapiens, UniProt Q8IVW4); test: Kinase Profiler; format: biochemical
Sequence of CDKL3(h) (Q8IVW4 whole entry): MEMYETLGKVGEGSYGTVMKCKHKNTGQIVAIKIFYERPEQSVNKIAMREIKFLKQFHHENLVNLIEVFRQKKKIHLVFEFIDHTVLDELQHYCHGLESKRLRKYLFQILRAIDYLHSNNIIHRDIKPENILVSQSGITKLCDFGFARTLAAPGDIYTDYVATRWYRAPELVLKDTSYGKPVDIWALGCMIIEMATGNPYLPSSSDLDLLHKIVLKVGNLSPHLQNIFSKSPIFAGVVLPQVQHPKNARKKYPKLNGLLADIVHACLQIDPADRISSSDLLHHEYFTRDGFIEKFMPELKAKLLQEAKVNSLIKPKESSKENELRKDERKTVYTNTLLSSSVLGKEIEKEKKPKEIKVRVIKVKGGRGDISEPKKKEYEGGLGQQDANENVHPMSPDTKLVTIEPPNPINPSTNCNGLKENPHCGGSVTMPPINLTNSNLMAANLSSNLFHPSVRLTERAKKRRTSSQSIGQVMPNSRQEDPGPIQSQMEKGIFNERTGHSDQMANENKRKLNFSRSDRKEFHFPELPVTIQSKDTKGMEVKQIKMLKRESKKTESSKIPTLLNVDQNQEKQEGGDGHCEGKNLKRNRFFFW
Procedure: as §3

CK1α(h) = CK1α(h) (Homo sapiens, UniProt P48729); test: Kinase Profiler; format: biochemical
Sequence of CK1α(h) (P48729 whole entry): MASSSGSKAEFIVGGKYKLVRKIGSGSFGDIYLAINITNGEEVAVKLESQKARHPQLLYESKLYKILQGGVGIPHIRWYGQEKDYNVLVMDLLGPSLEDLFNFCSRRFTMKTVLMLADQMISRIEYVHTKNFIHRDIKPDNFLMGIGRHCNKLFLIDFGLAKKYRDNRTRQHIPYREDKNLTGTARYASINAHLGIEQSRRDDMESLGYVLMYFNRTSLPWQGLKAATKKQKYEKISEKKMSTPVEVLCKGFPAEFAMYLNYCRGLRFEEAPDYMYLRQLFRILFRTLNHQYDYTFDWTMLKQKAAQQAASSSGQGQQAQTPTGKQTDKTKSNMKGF
Procedure: as §2

c-RAF(h) = c-RAF(h) (Homo sapiens, UniProt P04049); test: Kinase Profiler; format: biochemical
Sequence of c-RAF(h) (P04049 whole entry): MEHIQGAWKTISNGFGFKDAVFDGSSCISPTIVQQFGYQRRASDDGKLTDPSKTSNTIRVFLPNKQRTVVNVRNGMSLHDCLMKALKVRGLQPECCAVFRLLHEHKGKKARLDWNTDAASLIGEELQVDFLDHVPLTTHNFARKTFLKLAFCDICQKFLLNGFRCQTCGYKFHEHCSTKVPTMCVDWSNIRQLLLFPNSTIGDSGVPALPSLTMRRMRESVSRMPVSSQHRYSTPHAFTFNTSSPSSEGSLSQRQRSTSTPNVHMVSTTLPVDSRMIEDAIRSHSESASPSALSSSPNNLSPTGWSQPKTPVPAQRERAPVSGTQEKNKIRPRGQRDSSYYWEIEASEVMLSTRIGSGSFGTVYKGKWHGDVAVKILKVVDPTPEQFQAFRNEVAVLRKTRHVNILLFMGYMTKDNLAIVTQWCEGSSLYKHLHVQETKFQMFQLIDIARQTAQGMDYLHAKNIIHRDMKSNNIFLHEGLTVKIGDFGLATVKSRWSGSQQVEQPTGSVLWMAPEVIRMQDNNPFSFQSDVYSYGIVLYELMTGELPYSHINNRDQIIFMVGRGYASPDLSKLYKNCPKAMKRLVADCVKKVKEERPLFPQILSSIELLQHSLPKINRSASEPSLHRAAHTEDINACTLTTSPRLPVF
Procedure: as §3

FAK(h) = FAK(h) (Homo sapiens, UniProt Q05397); test: Kinase Profiler; format: biochemical
Sequence of FAK(h) (Q05397 whole entry): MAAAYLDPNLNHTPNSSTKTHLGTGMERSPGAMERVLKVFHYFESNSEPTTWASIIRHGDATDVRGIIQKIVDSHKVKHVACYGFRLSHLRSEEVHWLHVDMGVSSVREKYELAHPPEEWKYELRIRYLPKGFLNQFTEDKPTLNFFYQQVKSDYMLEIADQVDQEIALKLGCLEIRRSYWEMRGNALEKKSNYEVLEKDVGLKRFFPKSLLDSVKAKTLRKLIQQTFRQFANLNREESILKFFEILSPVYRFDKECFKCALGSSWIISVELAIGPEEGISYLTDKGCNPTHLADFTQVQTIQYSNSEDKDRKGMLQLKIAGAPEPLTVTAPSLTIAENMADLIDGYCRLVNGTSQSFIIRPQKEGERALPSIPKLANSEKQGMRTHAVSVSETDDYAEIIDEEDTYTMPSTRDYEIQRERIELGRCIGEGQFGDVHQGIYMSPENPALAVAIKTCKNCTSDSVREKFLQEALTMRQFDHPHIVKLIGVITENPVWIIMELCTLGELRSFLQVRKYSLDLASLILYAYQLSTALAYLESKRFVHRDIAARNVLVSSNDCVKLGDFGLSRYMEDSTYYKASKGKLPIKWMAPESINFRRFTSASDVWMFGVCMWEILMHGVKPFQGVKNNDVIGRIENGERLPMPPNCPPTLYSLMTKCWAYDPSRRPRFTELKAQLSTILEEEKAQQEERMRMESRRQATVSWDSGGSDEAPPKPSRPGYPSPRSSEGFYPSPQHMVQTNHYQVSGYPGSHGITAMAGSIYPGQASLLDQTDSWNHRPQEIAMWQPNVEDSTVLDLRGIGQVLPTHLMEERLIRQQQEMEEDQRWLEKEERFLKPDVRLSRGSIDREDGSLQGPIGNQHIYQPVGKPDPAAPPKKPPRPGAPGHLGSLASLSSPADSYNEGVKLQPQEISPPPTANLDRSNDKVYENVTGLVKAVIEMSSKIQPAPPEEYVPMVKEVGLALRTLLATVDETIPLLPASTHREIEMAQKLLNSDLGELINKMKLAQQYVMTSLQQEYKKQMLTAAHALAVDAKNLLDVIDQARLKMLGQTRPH
Procedure: as §3

FGFR1(h) = FGFR1(h) (Homo sapiens, UniProt P11362); test: Kinase Profiler; format: biochemical
Procedure: as §3

Haspin(h) = Haspin(h) (Homo sapiens, UniProt Q8TF76); test: Kinase Profiler; format: biochemical
Procedure: as §3

HIPK1(h) = HIPK1(h) (Homo sapiens, UniProt Q86Z02); test: Kinase Profiler; format: biochemical
Procedure: as §3

JNK3(h) = JNK3(h) (Homo sapiens, UniProt P53779); test: Kinase Profiler; format: biochemical
Sequence of JNK3(h) (P53779 whole entry): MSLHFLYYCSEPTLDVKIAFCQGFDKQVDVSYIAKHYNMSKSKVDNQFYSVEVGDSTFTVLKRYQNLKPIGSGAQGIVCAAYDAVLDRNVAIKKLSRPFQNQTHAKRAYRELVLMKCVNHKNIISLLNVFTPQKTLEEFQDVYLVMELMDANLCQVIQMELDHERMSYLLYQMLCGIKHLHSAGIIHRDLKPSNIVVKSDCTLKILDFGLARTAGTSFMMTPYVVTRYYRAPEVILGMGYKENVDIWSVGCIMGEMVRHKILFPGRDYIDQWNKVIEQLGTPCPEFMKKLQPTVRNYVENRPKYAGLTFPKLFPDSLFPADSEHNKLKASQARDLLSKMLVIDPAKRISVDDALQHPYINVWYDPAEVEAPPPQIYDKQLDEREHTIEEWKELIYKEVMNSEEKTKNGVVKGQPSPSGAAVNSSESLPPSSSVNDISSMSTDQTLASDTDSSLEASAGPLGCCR
Procedure: as §3

PKCε(h) = PKCε(h) (Homo sapiens, UniProt Q02156); test: Kinase Profiler; format: biochemical
Procedure: as §3

PKG1α(h) = PKG1α(h) (Homo sapiens, UniProt Q13976); test: Kinase Profiler; format: biochemical
Procedure: as §3

TTBK1(h) = TTBK1(h) (Homo sapiens, UniProt Q5TCY1); test: Kinase Profiler; format: biochemical
Procedure: as §3

TTBK2(h) = TTBK2(h) (Homo sapiens, UniProt Q6IQ55); test: Kinase Profiler; format: biochemical
Sequence of TTBK2(h) (Q6IQ55 whole entry): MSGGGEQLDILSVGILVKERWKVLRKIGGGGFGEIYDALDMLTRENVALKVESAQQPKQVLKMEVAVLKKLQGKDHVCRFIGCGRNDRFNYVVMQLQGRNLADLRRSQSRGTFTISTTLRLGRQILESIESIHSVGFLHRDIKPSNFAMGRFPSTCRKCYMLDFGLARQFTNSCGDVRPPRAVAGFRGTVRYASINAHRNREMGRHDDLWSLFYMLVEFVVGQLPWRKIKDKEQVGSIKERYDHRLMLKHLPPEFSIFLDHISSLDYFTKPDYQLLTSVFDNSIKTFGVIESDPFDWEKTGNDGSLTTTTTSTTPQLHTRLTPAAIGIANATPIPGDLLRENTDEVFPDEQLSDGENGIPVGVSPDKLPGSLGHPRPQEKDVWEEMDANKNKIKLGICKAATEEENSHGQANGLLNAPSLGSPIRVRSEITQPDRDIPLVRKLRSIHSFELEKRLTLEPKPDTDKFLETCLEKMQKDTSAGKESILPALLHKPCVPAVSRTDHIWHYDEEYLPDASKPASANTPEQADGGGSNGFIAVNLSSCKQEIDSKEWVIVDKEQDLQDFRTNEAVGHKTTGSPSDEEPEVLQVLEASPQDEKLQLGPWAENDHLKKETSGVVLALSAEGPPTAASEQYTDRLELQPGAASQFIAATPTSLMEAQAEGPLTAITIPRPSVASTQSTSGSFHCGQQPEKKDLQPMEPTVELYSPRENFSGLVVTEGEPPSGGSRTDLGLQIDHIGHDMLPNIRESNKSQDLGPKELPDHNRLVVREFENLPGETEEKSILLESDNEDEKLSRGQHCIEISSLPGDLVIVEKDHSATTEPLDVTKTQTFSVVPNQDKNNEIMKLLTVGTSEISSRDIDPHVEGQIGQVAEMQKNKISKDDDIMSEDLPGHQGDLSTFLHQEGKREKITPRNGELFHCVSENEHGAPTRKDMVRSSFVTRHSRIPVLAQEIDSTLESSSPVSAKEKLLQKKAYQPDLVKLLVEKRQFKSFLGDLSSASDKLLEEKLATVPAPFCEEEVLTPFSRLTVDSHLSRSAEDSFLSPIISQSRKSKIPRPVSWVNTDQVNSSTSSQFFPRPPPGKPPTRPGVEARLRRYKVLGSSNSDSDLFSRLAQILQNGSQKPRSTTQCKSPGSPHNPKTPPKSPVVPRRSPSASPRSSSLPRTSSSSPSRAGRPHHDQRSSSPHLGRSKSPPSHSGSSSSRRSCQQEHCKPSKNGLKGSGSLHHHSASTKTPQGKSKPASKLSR
Procedure: as §3

PIP5K1g(h) = PIP5K1g(h) (Homo sapiens, UniProt O60331); test: Kinase Profiler; format: biochemical
Procedure: as §2

COc1ccc(OC)c(NS(=O)(=O)c2ccc(NC(=O)CCSc3ccc(C)cc3)cc2)c1 [Compound A41]
RAC1 activation (active GTP-bound RAC1) (RAC1): blocked RAC1 activation
% inh. [1]: 11%
% inh. (Adrenergic β1): 2%
% inh. (Angiotensin AT1): 17%
% inh. (Chemokine CCR1): 2%
Activity(%) (ALK2(h)): 100%
Activity(%) (CaMKI(h)): 114%
Activity(%) (CaMKIIβ(h)): 112%
Activity(%) (CDKL3(h)): 103%
Activity(%) (CK1α(h)): 102%
Activity(%) (c-RAF(h)): 93%
Activity(%) (FAK(h)): 111%
Activity(%) (FGFR1(h)): 83%
Activity(%) (Haspin(h)): 116%
Activity(%) (HIPK1(h)): 110%
Activity(%) (JNK3(h)): 123%
Activity(%) (PKCε(h)): 102%
Activity(%) (PKG1α(h)): 113%
Activity(%) (TTBK1(h)): 103%
Activity(%) (TTBK2(h)): 106%
Activity(%) (PIP5K1g(h)): 104%
